Measurements from ChEMBL document CHEMBL1201862, “PubChem BioAssay data set” (2004).
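How tested: cells in 96-well plates exposed to compound for 48 hours at five concentrations. GI50 = concentration required for 50% inhibition of growth.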 Calls of active or inactive are those of the source. Rule as the data show it: active = GI50 up to about 1.1 µM and inactive = higher.

Key:
Experiment in all cases: NCI-60 cell line screen, 48 h
SF-295 = test system: SF-295
HOP-62 = test system: HOP-62
OVCAR-4 = test system: OVCAR-4
SK-MEL-2 = test system: SK-MEL-2
DMS-273 = test system: DMS-273
UO-31 = test system: UO-31
KM12 = test system: KM12
ACHN = test system: ACHN
TK-10 = test system: TK-10
LOX IMVI = test system: LOX IMVI
SR = test system: SR
IGROV-1 = test system: IGROV-1
K562 = test system: K562
HOP-92 = test system: HOP-92
M14 = test system: M14
HCT-15 = test system: HCT-15
NCI-H226 = test system: NCI-H226
OVCAR-3 = test system: OVCAR-3
SNB-78 = test system: SNB-78
EKVX = test system: EKVX
UACC-257 = test system: UACC-257
SNB-75 = test system: SNB-75
SK-MEL-5 = test system: SK-MEL-5
M19-MEL = test system: M19-MEL
SF-268 = test system: SF-268
SW-620 = test system: SW-620
SK-MEL-28 = test system: SK-MEL-28
SNB-19 = test system: SNB-19
NCI-H23 = test system: NCI-H23
HCT-116 = test system: HCT-116
OVCAR-8 = test system: OVCAR-8
U-251 = test system: U-251
HCC 2998 = test system: HCC 2998
A498 = test system: A498
NCI-H460 = test system: NCI-H460
SF-539 = test system: SF-539
OVCAR-5 = test system: OVCAR-5
SN12C = test system: SN12C
HL-60 = test system: HL-60
DLD-1 = test system: DLD-1
CCRF-CEM = test system: CCRF-CEM
Malme-3M = test system: Malme-3M
786-0 = test system: 786-0
A549 = test system: A549
UACC-62 = test system: UACC-62
KM-20L2 = test system: KM-20L2
DMS-114 = test system: DMS-114
HOP-18 = test system: HOP-18
XF498 = test system: XF498
HT-29 = test system: HT-29
LXFL 529 = test system: LXFL 529
MOLT-4 = test system: MOLT-4
RPMI-8226 = test system: RPMI-8226
RXF 393 = test system: RXF 393
COLO 205 = test system: COLO 205
SK-OV-3 = test system: SK-OV-3
NCI-H522 = test system: NCI-H522
RXF 631 = test system: RXF 631
CAKI-1 = test system: CAKI-1

Cc1cc(C)n(-c2ccnc3cc(Cl)ccc23)n1
GI50 (SF-295): > 100 µM (inactive) | GI50 (HOP-62): > 100 µM (inactive) | GI50 (OVCAR-4): > 100 µM (inactive) | GI50 (SK-MEL-2): > 100 µM (inactive) | GI50 (DMS-273): > 100 µM (inactive) | GI50 (UO-31): 91.6 µM (inactive) | GI50 (KM12): > 100 µM (inactive) | GI50 (ACHN): > 100 µM (inactive) | GI50 (TK-10): > 100 µM (inactive) | GI50 (LOX IMVI): > 100 µM (inactive) | GI50 (SR): > 100 µM (inactive) | GI50 (IGROV-1): > 100 µM (inactive) | GI50 (K562): > 100 µM (inactive) | GI50 (HOP-92): > 100 µM (inactive) | GI50 (M14): > 100 µM (inactive) | GI50 (HCT-15): > 100 µM | GI50 (NCI-H226): > 100 µM (inactive) | GI50 (OVCAR-3): > 100 µM (inactive) | GI50 (SNB-78): > 100 µM (inactive) | GI50 (EKVX): > 100 µM (inactive) | GI50 (UACC-257): > 100 µM (inactive) | GI50 (SNB-75): > 100 µM (inactive) | GI50 (SK-MEL-5): > 100 µM (inactive) | GI50 (M19-MEL): > 100 µM (inactive) | GI50 (SF-268): > 100 µM (inactive) | GI50 (SW-620): > 100 µM (inactive) | GI50 (SK-MEL-28): > 100 µM (inactive) | GI50 (SNB-19): > 100 µM (inactive) | GI50 (NCI-H23): > 100 µM (inactive) | GI50 (HCT-116): > 100 µM (inactive) | GI50 (OVCAR-8): > 100 µM (inactive) | GI50 (U-251): > 100 µM (inactive) | GI50 (HCC 2998): > 100 µM (inactive) | GI50 (A498): > 100 µM (inactive) | GI50 (NCI-H460): > 100 µM (inactive) | GI50 (SF-539): > 100 µM (inactive) | GI50 (OVCAR-5): > 100 µM (inactive) | GI50 (SN12C): > 100 µM (inactive) | GI50 (HL-60): > 100 µM (inactive) | GI50 (DLD-1): > 100 µM (inactive) | GI50 (CCRF-CEM): > 100 µM (inactive) | GI50 (Malme-3M): > 100 µM (inactive) | GI50 (786-0): > 100 µM (inactive) | GI50 (A549): > 100 µM (inactive) | GI50 (UACC-62): > 100 µM (inactive) | GI50 (KM-20L2): > 100 µM (inactive) | GI50 (DMS-114): > 100 µM (inactive) | GI50 (HOP-18): > 100 µM (inactive) | GI50 (XF498): > 100 µM (inactive) | GI50 (HT-29): > 100 µM (inactive) | GI50 (LXFL 529): > 100 µM (inactive) | GI50 (MOLT-4): > 100 µM (inactive) | GI50 (RPMI-8226): > 100 µM (inactive) | GI50 (RXF 393): > 100 µM (inactive) | GI50 (COLO 205): > 100 µM (inactive) | GI50 (SK-OV-3): > 100 µM (inactive)

Cc1ccc(C)c2sc3cc(=O)ccc-3nc12
GI50 (SF-295): 39.1 µM (inactive) | GI50 (HOP-62): 28.7 µM (inactive) | GI50 (OVCAR-4): 21.1 µM (inactive) | GI50 (SK-MEL-2): 53.3 µM (inactive) | GI50 (DMS-273): 39.2 µM (inactive) | GI50 (UO-31): 45.5 µM (inactive) | GI50 (KM12): 33.8 µM (inactive) | GI50 (ACHN): 30 µM (inactive) | GI50 (TK-10): 26.3 µM (inactive) | GI50 (SR): 26.4 µM (inactive) | GI50 (IGROV-1): 82 µM (inactive) | GI50 (K562): 16 µM (inactive) | GI50 (HOP-92): 28.1 µM (inactive) | GI50 (M14): 18.2 µM (inactive) | GI50 (HCT-15): 29.4 µM | GI50 (NCI-H226): 75.2 µM (inactive) | GI50 (OVCAR-3): 43.3 µM (inactive) | GI50 (SNB-78): > 100 µM (inactive) | GI50 (EKVX): 37.2 µM (inactive) | GI50 (UACC-257): 35.1 µM (inactive) | GI50 (SNB-75): 55.5 µM (inactive) | GI50 (SK-MEL-5): 16.5 µM (inactive) | GI50 (M19-MEL): 17.3 µM (inactive) | GI50 (SF-268): 43.5 µM (inactive) | GI50 (SW-620): 63.1 µM (inactive) | GI50 (SK-MEL-28): 43.4 µM (inactive) | GI50 (SNB-19): 91.6 µM (inactive) | GI50 (NCI-H23): 29 µM (inactive) | GI50 (HCT-116): 54.3 µM (inactive) | GI50 (OVCAR-8): 35.2 µM (inactive) | GI50 (NCI-H522): 7.83 µM (inactive) | GI50 (U-251): 35.7 µM (inactive) | GI50 (HCC 2998): 44.1 µM (inactive) | GI50 (NCI-H460): 34.2 µM (inactive) | GI50 (SF-539): 32.2 µM (inactive) | GI50 (OVCAR-5): 30.8 µM (inactive) | GI50 (SN12C): 57.7 µM (inactive) | GI50 (RXF 631): 92.9 µM (inactive) | GI50 (HL-60): 10.5 µM (inactive) | GI50 (DLD-1): 45.9 µM (inactive) | GI50 (CCRF-CEM): 14.9 µM (inactive) | GI50 (CAKI-1): 22 µM (inactive) | GI50 (786-0): 39.2 µM (inactive) | GI50 (A549): 41.2 µM (inactive) | GI50 (UACC-62): 17.5 µM (inactive) | GI50 (KM-20L2): 73.3 µM (inactive) | GI50 (DMS-114): 30.5 µM (inactive) | GI50 (HOP-18): > 100 µM (inactive) | GI50 (HT-29): 44 µM (inactive) | GI50 (LXFL 529): 37.7 µM (inactive) | GI50 (MOLT-4): 15 µM (inactive) | GI50 (COLO 205): 63.8 µM (inactive) | GI50 (SK-OV-3): > 100 µM (inactive)
